Reference: patent US5789431A, “Naphthoquinone antitumor compound and method” (The University of North Carolina at Chapel Hill, priority 1996, dated 1998)

Experiments:
MALME-3M = experiment: in vitro melanoma cell growth inhibition (NCI screen)
UACC-62 = experiment: as above
KM 12 = experiment: in vitro colon cancer cell growth inhibition (NCI screen)
OVCAR-3 = experiment: in vitro ovarian cancer cell growth inhibition (NCI screen)
MDA-MB-435 = experiment: in vitro breast cancer cell growth inhibition (NCI screen)
MDA-N = experiment: as above
NCI-H23 = experiment: in vitro non-small cell lung cancer cell growth inhibition (NCI screen)
M19-MEL = experiment: in vitro melanoma cell growth inhibition (NCI screen)
SK-MEL-2 = experiment: as above
SK-MEL-5 = experiment: as above
UACC-257 = experiment: as above
HL-60(TB) = experiment: in vitro leukemia cell growth inhibition (NCI screen)
K-562 = experiment: as above
SF-539 = experiment: in vitro CNS cancer cell growth inhibition (NCI screen)
HCT-116 = experiment: in vitro colon cancer cell growth inhibition (NCI screen)
UO-31 = experiment: in vitro renal cancer cell growth inhibition (NCI screen)
HOP-92 = experiment: in vitro non-small cell lung cancer cell growth inhibition (NCI screen)
NCI-H460 = experiment: as above
NCI-H522 = experiment: as above
LOX1MVI = experiment: in vitro melanoma cell growth inhibition (NCI screen)
SR = experiment: in vitro leukemia cell growth inhibition (NCI screen)
SNB-75 = experiment: in vitro CNS cancer cell growth inhibition (NCI screen)
COLO-205 = experiment: in vitro colon cancer cell growth inhibition (NCI screen)
DLD-1 = experiment: as above
HCT-15 = experiment: as above
LXFL 529 = experiment: in vitro non-small cell lung cancer cell growth inhibition (NCI screen)
HT 29 = experiment: in vitro colon cancer cell growth inhibition (NCI screen)
SW 620 = experiment: as above
RXF-393 = experiment: in vitro renal cancer cell growth inhibition (NCI screen)
PC-3 = experiment: in vitro prostate cancer cell growth inhibition (NCI screen)
CCRF-CEM = experiment: in vitro leukemia cell growth inhibition (NCI screen)
MOLT-4 = experiment: as above
XF-498 = experiment: in vitro CNS cancer cell growth inhibition (NCI screen)
ACHN = experiment: in vitro renal cancer cell growth inhibition (NCI screen)
human tumor cell lines = format: cell-based; settings: Homo sapiens; cancer cell panel, general / most cell lines; read-out: logGI50 values in the cancer cell line panel (converted)
M14 = experiment: in vitro melanoma cell growth inhibition (NCI screen)
OVCAR-4 = experiment: in vitro ovarian cancer cell growth inhibition (NCI screen); settings: OVACR-4
MCF7/ADR-RES = experiment: in vitro breast cancer cell growth inhibition (NCI screen)
T-47D = experiment: as above
OVCAR-8 = experiment: in vitro ovarian cancer cell growth inhibition (NCI screen)
RPMI-8226 = experiment: in vitro leukemia cell growth inhibition (NCI screen)
IGROV1 = experiment: in vitro ovarian cancer cell growth inhibition (NCI screen)

Row | Compound | cytotoxicity log GI50 (MALME-3M) [M] | cytotoxicity log GI50 (UACC-62) [M] | cytotoxicity log GI50 (OVCAR-3) [M] | cytotoxicity log GI50 (MDA-MB-435) [M] | cytotoxicity log GI50 (NCI-H23) [M] | cytotoxicity log GI50 (M19-MEL) [M] | cytotoxicity log GI50 (SK-MEL-2) [M] | cytotoxicity log GI50 (SK-MEL-5) [M] | cytotoxicity log GI50 (UACC-257) [M] | cytotoxicity log GI50 (HL-60(TB)) [M] | cytotoxicity log GI50 (K-562) [M] | cytotoxicity log GI50 (SF-539) [M] | cytotoxicity log GI50 (HCT-116) [M] | cytotoxicity log GI50 (UO-31) [M] | cytotoxicity log GI50 (NCI-H522) [M] | cytotoxicity log GI50 (SR) [M] | cytotoxicity log GI50 (COLO-205) [M] | cytotoxicity log GI50 (HCT-15) [M] | cytotoxicity log GI50 (RXF-393) [M] | cytotoxicity log GI50 (XF-498) [M] | other results
1 | COC(=O)CCCC(=O)NC1=C(Nc2ccccc2)C(=O)c2ccccc2C1=O [Compound 52] | -5.45 | -5.49 | -4.90 | -5.26 | -4.97 |  |  |  |  |  |  |  |  |  |  |  |  |  |  |  | cytotoxicity log GI50 (KM 12): -5.28 M; cytotoxicity log GI50 (MDA-N): -5.41 M
2 | Cc1nc2c(n1CC(C)C)C(=O)c1ccccc1C2=O [Compound 7] | -4.69 | -4.68 | -4.60 |  | -4.74 | -4.80 | -4.59 | -4.73 | -4.75 | -4.64 | -4.52 | -4.61 | -4.68 | -4.58 | -4.58 |  |  |  |  |  | cytotoxicity log GI50 (HOP-92): -4.99 M; cytotoxicity log GI50 (NCI-H460): -4.63 M
3 | CCC(CC)n1c(C)nc2c1C(=O)c1ccccc1C2=O [Compound 10] | -4.58 | -4.99 | -4.59 |  | -4.67 | -4.83 | -4.56 | -4.80 | -4.62 | -4.97 | -4.68 |  | -4.71 | -4.71 |  | -4.59 | -4.57 | -5.04 |  |  | cytotoxicity log GI50 (LOX1MVI): -4.71 M; cytotoxicity log GI50 (SNB-75): -4.69 M; cytotoxicity log GI50 (DLD-1): -4.61 M; cytotoxicity log GI50 (HOP-92): -4.65 M; cytotoxicity log GI50 (NCI-H460): -4.68 M; cytotoxicity log GI50 (LXFL 529): -4.71 M
4 | CCCC(=O)NC1=C(NCC)C(=O)c2ccccc2C1=O [Compound 46] | -4.41 |  | -4.47 | -4.60 |  |  |  |  | -4.40 | -4.39 | -4.29 |  | -4.36 |  | -4.59 |  | -4.44 | -4.40 | -4.32 |  | cytotoxicity log GI50 (HT 29): -4.36 M; cytotoxicity log GI50 (KM 12): -4.28 M; cytotoxicity log GI50 (SW 620): -4.48 M; cytotoxicity log GI50 (MDA-N): -4.68 M; cytotoxicity log GI50 (PC-3): -4.39 M
5 | CCC(C)(C)NC1=C(NC(C)=O)C(=O)c2ccccc2C1=O [Compound 36] | -4.54 | -4.60 |  |  | -4.72 | -4.88 | -4.68 | -4.87 | -4.69 | -4.78 | -4.68 | -4.61 | -4.75 | -4.56 | -4.99 | -4.50 |  |  | -4.60 | -4.84 | cytotoxicity log GI50 (LOX1MVI): -4.53 M; cytotoxicity log GI50 (CCRF-CEM): -4.77 M; cytotoxicity log GI50 (MOLT-4): -4.86 M; cytotoxicity log GI50 (ACHN): -4.82 M
6 | CC(=O)NC1=C(NCC(C)(C)C)C(=O)c2ccccc2C1=O [Compound 38] | -4.46 | -4.41 | -4.26 |  |  | -4.68 |  | -4.40 | -4.30 | -4.49 | -4.42 | -4.48 | -4.47 | -4.33 | -4.72 |  | -4.41 | -4.26 | -4.43 | -4.59 | cytotoxicity log GI50 (CCRF-CEM): -4.42 M; cytotoxicity log GI50 (ACHN): -4.57 M
7 | CCn1c(-c2ccccc2)nc2c1C(=O)c1ccccc1C2=O [Compound 25] | -5.06 |  | -5.23 | -4.80 |  |  |  | -4.95 | -5.41 |  |  |  |  |  | -4.82 |  | -4.85 |  | -4.81 |  | GI50 (human tumor cell lines): ~10 µM; cytotoxicity log GI50 (M14): -4.81 M; cytotoxicity log GI50 (MOLT-4): -4.83 M; cytotoxicity log GI50 (SNB-75): -4.61 M; cytotoxicity log GI50 (HT 29): -5.05 M; cytotoxicity log GI50 (OVCAR-4): -4.90 M; cytotoxicity log GI50 (MCF7/ADR-RES): -4.88 M; cytotoxicity log GI50 (T-47D): -5.65 M; cytotoxicity log GI50 (OVCAR-8): -4.85 M; cytotoxicity log GI50 (PC-3): -4.99 M
8 | O=C(Cc1ccc(F)cc1)NC1=C(Cl)C(=O)c2ccccc2C1=O [Compound 2j] | -5.67 |  |  |  | -5.89 |  |  |  |  | -7.56 |  | -5.65 |  |  |  | -6.88 |  | -5.64 | -5.75 | -5.71 | GI50 (human tumor cell lines): 0.0251 to 2.51 µM; cytotoxicity log GI50 (RPMI-8226): -7.07 M; cytotoxicity log GI50 (SNB-75): -5.66 M; cytotoxicity log GI50 (DLD-1): -5.62 M; cytotoxicity log GI50 (SW 620): -5.68 M; cytotoxicity log GI50 (ACHN): -5.70 M; cytotoxicity log GI50 (IGROV1): -5.73 M; cytotoxicity log GI50 (OVCAR-8): -5.71 M; cytotoxicity log GI50 (HOP-92): -5.72 M
9 | CCC(C)(C)n1c(C)nc2c1C(=O)c1ccccc1C2=O [Compound 12] |  | -4.87 |  |  |  | -4.80 | -4.73 | -4.80 |  | -5.12 | -4.87 |  | -4.87 |  |  | -5.03 | -4.77 | -4.64 | -4.68 | -4.77 | cytotoxicity log GI50 (LOX1MVI): -4.71 M; cytotoxicity log GI50 (MOLT-4): -4.73 M; cytotoxicity log GI50 (DLD-1): -4.81 M; cytotoxicity log GI50 (NCI-H460): -4.91 M; cytotoxicity log GI50 (LXFL 529): -4.86 M
